Measured values reported in paper PMC7180456, “Multitarget Anticancer Agents Based on Histone Deacetylase and Protein Kinase CK2 Inhibitors” (Molecules, 2020).
Read-outs that look alike come from different tables or passages of the source.

What was measured:
HDAC6 = target: T1, HDAC6 (Homo sapiens, UniProt Q9UBN7); assay: HDAC6 inhibition, fluorometric method (Enzo Fluorometric Drug Discovery Assay Kit); type: biochemical; conditions: read-out: Inhibitory activity IC50 on HDAC6
T1 construct: purchased Enzo Life Sciences, Inc
T1 sequence (Q9UBN7 1-1215): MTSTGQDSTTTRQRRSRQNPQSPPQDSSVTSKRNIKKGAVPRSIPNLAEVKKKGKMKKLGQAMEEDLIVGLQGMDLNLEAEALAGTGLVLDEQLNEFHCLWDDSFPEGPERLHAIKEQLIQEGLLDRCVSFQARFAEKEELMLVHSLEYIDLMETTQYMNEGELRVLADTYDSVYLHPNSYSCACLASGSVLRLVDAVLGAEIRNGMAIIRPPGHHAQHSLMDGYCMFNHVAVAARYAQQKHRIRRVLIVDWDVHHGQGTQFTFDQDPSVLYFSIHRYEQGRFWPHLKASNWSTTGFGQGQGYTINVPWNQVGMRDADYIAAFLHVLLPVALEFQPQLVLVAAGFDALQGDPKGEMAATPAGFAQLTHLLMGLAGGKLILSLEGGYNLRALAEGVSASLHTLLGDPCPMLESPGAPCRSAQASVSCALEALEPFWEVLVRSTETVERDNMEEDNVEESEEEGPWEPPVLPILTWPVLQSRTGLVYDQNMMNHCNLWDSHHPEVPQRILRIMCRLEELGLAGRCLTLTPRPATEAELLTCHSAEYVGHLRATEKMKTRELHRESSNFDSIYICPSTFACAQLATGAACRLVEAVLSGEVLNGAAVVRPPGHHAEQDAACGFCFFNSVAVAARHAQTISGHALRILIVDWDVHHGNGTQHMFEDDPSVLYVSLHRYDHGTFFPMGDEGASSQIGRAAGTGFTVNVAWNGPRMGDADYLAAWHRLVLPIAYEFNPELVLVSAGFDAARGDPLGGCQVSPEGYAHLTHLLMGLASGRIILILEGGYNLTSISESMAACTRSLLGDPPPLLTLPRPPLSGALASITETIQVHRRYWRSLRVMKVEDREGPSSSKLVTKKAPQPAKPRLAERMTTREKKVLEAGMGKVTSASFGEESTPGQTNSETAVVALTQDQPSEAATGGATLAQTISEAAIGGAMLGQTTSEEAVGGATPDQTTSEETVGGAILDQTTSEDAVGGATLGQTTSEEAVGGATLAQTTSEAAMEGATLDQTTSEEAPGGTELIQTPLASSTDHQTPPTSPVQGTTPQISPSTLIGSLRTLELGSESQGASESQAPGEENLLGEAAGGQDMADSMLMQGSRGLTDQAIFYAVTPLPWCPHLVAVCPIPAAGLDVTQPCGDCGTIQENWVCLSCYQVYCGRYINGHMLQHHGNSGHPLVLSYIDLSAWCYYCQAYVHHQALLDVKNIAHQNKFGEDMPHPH
Description: For this reason, we analyzed the activity of 15 and 19, together with other compounds from the alkyl and triazole series in HDAC6, tested using a fluorometric method (Table 1).
15 µL of HDAC1 (0.4 µg/well) or HDAC6 (0.5 µg/well) were incubated at 37 °C for 30 minutes with 10 µL of inhibitor diluted in 5% DMSO and 25 µL of fluorogenic substrate (0.05 µL/well of 5 mM solution). Reactions were stopped with the developer and trichostatin A, diluted in buffer without BSA, and the plate was incubated at 30 °C for 45 min, followed by measuring the fluorescence (Ex. 360 nm, Em. 450 nm, Fluoroskan, Thermo Scientific).

[1] = tested on: HL-60/adr (doxorubicin-resistant, MRP-1 overexpression); assay: Cytotoxicity, trypan blue exclusion assay, 24 h; type: cell-based; conditions: Homo sapiens, HL60/ADR
Source text: (§1) Taking into consideration the high abundance of CK2 kinase in leukemia and lymphomas, the ability of selected CK2-HDAC dual inhibitors to circumvent MDR was investigated in human leukemia cells of HL-60 line and its doxorubicin-resistant (HL-60/adr, MRP-1 overexpression) and vincristine-resistant (HL-60/vinc, P-gp overexpression) sublines.
(§2) Statistical significance was set at P ≤ 0.05.

[2] = tested on: HL-60/vinc (vincristine-resistant, P-gp overexpression); assay: Cytotoxicity, trypan blue exclusion assay, 24 h; type: cell-based; conditions: Homo sapiens, HL60/vinc
Source text: as §1, §2

[3] = tested on: leukemia cells of HL-60 line; assay: Cytotoxicity, trypan blue exclusion assay, 24 h; type: cell-based; conditions: Homo sapiens
Source text: as §1, §2

Jurkat T-leukemia cells = assay: Cytotoxicity, trypan blue exclusion assay, 24 h; conditions: Homo sapiens
Description: Walter Berger, Institute of Cancer Research, Vienna Medical University. Human embryonal kidney cells of HEK293 line were obtained from cell culture collection of R.E. Kavetsky Institute of Experimental Pathology, Oncology and Radiobiology, National Academy of Sciences of Ukraine (Kyiv, Ukraine).
Cells were seeded (5 × 10^5/mL for leukemia cells and 1 × 10^5/mL for carcinoma cells) into 24-well tissue culture plates (Greiner Bio-one, Frickenhausen, Germany) and were permitted to adhere and grow for 24 h before the experiment. Short-term (24 h) cytotoxic effect of antitumor drugs was studied under the Evolution 300 Trino microscope (Delta Optical, Nowe Osiny, Poland) after cell staining with trypan blue dye (0.1%).
Final concentration of DMSO in cell culture was 0.5% or less.
All experiments were performed in triplicate and repeated three times. Statistical analysis of data was conducted in GraphPad Prism 7.0 Software (GraphPad Software, Inc.) using Student’s t test. Statistical significance was set at P ≤ 0.05. Evaluation of LC50 values of each compound was done by built-in functions of GraphPad Prism (non-linear regression, curve fit, [Inhibitor] vs. normalized response - Variable slope).

[4] = tested on: HL-60, HL-60/adr and HL-60/vinc leukemia cells; assay: DCFDA assay, hydrogen peroxide production; type: cell-based, human; conditions: 10 µM and 30 µM, 24 h
Source text: To reveal potential mechanisms underlying this phenomenon, we studied the impact of the selected compounds on ROS production in both sensitive and MDR cell lines (Figure S8). […] As mitochondria are considered the main source of cellular superoxides, the next aim of our studies was to check whether CK2-HDAC inhibitors induce oxidative stress in tumor cells via depolarization of mitochondria, using the JC-1 assay. However, it was technically impossible to measure JC-1 accumulation on HL-60/adr and HL-60/vinc cells, because JC-1 is a substrate for these ABC-transporter proteins and is actively pumped out into extracellular medium.
Cellular ROS contents were measured by incubating control or drug-treated cells with fluorescent dyes dihydrodichlorofluorescein diacetate (DCFDA, detecting mainly H2O2) and dihydroethidium (DHE, O2^●−-specific) in concentrations of 10 μM at 37 °C for 30 minutes. After incubation with the dyes, cells were washed with PBS and immediately analyzed at FL1 (DCFDA) or FL2 channel (DHE) of FACSCalibur flow cytometer (BD Biosciences, San Jose, CA).

[5] = Table 2, trypan blue, 24 h, M ± SD, read-out: LC50 Values of Compounds for Cell Line, HL-60/adr
[6] = supplement Table 4S, M±SD, read-out: LC50 values of compounds for cell line, HL-60/adr
[7] = Table 2, trypan blue, 24 h, M ± SD, read-out: LC50 Values of Compounds for Cell Line, HL-60/vinc
[8] = supplement Table 4S, M±SD, read-out: LC50 values of compounds for cell line, HL-60/vinc
[9] = Table 2, trypan blue, 24 h, M ± SD, read-out: LC50 Values of Compounds for Cell Line, HL-60
[10] = supplement Table 4S, M±SD, read-out: LC50 values of compounds for cell line, HL-60
[11] = 24 h, read-out: LC50 Values of Compounds for Cell Line, Jurkat
[12] = read-out: LC50 values of compounds for cell line, Jurkat

SMILES: CN(C)c1nc2c(Br)c(Br)c(Br)c(Br)c2n1CCc1cn(CCC(=O)NO)nn1 [Compound 7c, N-Hydroxy-3-(4-(2-(4,5,6,7-tetrabromo-2-(dimethylamino)-1H-benzo[d]imidazol-1-yl)ethyl)-1H-1,2,3-triazol-1-yl)propanamide]
- IC50 (HDAC6): 30.7 µM
- CC50 [1, 5]: 18.6 ± 2.09 µM
- CC50 [1, 6]: 16.2 µM
- CC50 [2, 7]: 49.5 ± 9.47 µM
- CC50 [2, 8]: 17.6 µM
- CC50 [3, 9]: 24 ± 8.66 µM
- CC50 [3, 10]: 7.67 µM
- CC50 (Jurkat T-leukemia cells; [11]): 16.5 ± 2.33 µM
- CC50 (Jurkat T-leukemia cells; [12]): 10.7 µM
- impact on hydrogen peroxide production [4]: hydrogen peroxide burst

SMILES: O=C(NO)c1ccc(Cn2nc3c(Br)c(Br)c(Br)c(Br)c3n2)cc1 [Compound 15a, N-Hydroxy-4-((tetrabromo-2H-benzo[d][1,2,3]triazol-2-yl)methyl)benzamide]
- IC50 (HDAC6): 11 µM
- CC50 [1, 5]: 32.4 ± 3.44 µM
- CC50 [1, 6]: > 30 µM
- CC50 [2, 7]: 36.6 ± 4.74 µM
- CC50 [2, 8]: > 30 µM
- CC50 [3, 9]: 34.4 ± 7.89 µM
- CC50 [3, 10]: > 30 µM
- CC50 (Jurkat T-leukemia cells; [11]): 43.6 ± 16.7 µM
- CC50 (Jurkat T-leukemia cells; [12]): > 30 µM

SMILES: CN(C)c1nc2c(Br)c(Br)c(Br)c(Br)c2n1Cc1ccc(C(=O)NO)cc1 [Compound 19, N-Hydroxy-4-((4,5,6,7-tetrabromo-2-(dimethylamino)-1H-benzo[d]imidazol-1-yl)methyl)benzamide]
- IC50 (HDAC6): 20.6 µM
- CC50 [1, 5]: 32.3 ± 5.32 µM
- CC50 [1, 6]: > 30 µM
- CC50 [2, 7]: 21.7 ± 3.39 µM
- CC50 [2, 8]: 26.6 µM
- CC50 [3, 10]: > 30 µM
- CC50 (Jurkat T-leukemia cells; [11]): 24.9 ± 3.8 µM
- CC50 (Jurkat T-leukemia cells; [12]): 21.8 µM
